Source: the supplement of paper PMC10307832

Columns and labels:
Experiment in all cases: relative viability (nuclei count vs DMSO), 5 days (fraction); higher = more cells survive
Omipalisib + Pictilisib = compound: COc1ncc(-c2ccc3nccc(-c4ccnnc4)c3c2)cc1NS(=O)(=O)c1ccc(F)cc1F [Omipalisib] + CS(=O)(=O)N1CCN(Cc2cc3nc(-c4cccc5[nH]ncc45)nc(N4CCOCC4)c3s2)CC1 [Pictilisib] (partner 1 µM)
Method in brief: (§1)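 Relative viability is defined as nuclei in treated wells over nuclei in vehicle wells. Duplicate plates were run and medians reported. Lung cancer cell lines in 1536-well plates were dosed by pin tool one day after seeding, with one drug or with a fixed anchor-drug dose plus five library-drug doses (not always all listed) in √10 steps, and nuclei were counted after 5 days.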

Omipalisib + Vorinostat = compound: COc1ncc(-c2ccc3nccc(-c4ccnnc4)c3c2)cc1NS(=O)(=O)c1ccc(F)cc1F [Omipalisib] + O=C(CCCCCCC(=O)Nc1ccccc1)NO [Vorinostat] (partner 1 µM)
Method in brief: as §1

Omipalisib + Navitoclax = compound: COc1ncc(-c2ccc3nccc(-c4ccnnc4)c3c2)cc1NS(=O)(=O)c1ccc(F)cc1F [Omipalisib] + CC1(C)CCC(c2ccc(Cl)cc2)=C(CN2CCN(c3ccc(C(=O)NS(=O)(=O)c4ccc(N[C@H](CCN5CCOCC5)CSc5ccccc5)c(S(=O)(=O)C(F)(F)F)c4)cc3)CC2)C1 [Navitoclax] (partner 0.5 µM)
Method in brief: as §1

Omipalisib + Linsitinib = compound: COc1ncc(-c2ccc3nccc(-c4ccnnc4)c3c2)cc1NS(=O)(=O)c1ccc(F)cc1F [Omipalisib] + C[C@]1(O)C[C@@H](c2nc(-c3ccc4ccc(-c5ccccc5)nc4c3)c3c(N)nccn32)C1 [Linsitinib] (partner 1 µM)
Method in brief: as §1

Omipalisib + Alpelisib = compound: COc1ncc(-c2ccc3nccc(-c4ccnnc4)c3c2)cc1NS(=O)(=O)c1ccc(F)cc1F [Omipalisib] + Cc1nc(NC(=O)N2CCC[C@H]2C(N)=O)sc1-c1ccnc(C(C)(C)C(F)(F)F)c1 [Alpelisib] (partner 2 µM)
Method in brief: as §1

Omipalisib = compound: COc1ncc(-c2ccc3nccc(-c4ccnnc4)c3c2)cc1NS(=O)(=O)c1ccc(F)cc1F [Omipalisib]
Method in brief: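 Lung cancer cell lines in 1536-well plates were exposed by pinning to five library-drug doses (not always all listed) √10 apart, following an overnight hold at 37 °C. MetaXpress counted Hoechst-stained nuclei from 4× images taken after 5 days without medium change. Viability is the median ratio of treated-well to vehicle-well nuclei across plates. Plates required control CV below 25% and at least one doubling.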

Cell Line	relative viability (Omipalisib + Pictilisib; first compound 0.0003 µM)	relative viability (Omipalisib + Pictilisib; first compound 0.003 µM)	relative viability (Omipalisib + Pictilisib; first compound 0.03 µM)	relative viability (Omipalisib + Vorinostat; first compound 0.0003 µM)	relative viability (Omipalisib + Vorinostat; first compound 0.003 µM)	relative viability (Omipalisib + Vorinostat; first compound 0.03 µM)	relative viability (Omipalisib + Navitoclax; first compound 0.0003 µM)	relative viability (Omipalisib + Navitoclax; first compound 0.003 µM)	relative viability (Omipalisib + Navitoclax; first compound 0.03 µM)	relative viability (Omipalisib + Linsitinib; first compound 0.0003 µM)	relative viability (Omipalisib + Linsitinib; first compound 0.003 µM)	relative viability (Omipalisib + Linsitinib; first compound 0.03 µM)	relative viability (Omipalisib + Alpelisib; first compound 0.0003 µM)	relative viability (Omipalisib + Alpelisib; first compound 0.003 µM)	relative viability (Omipalisib + Alpelisib; first compound 0.03 µM)	relative viability (Omipalisib; 0.0003 µM)	relative viability (Omipalisib; 0.003 µM)	relative viability (Omipalisib; 0.03 µM)
HCC-78	0.198	0.183	0.189	0.334	0.337	0.246	0.68	0.466	0.193	0.389	0.358	0.24	0.297	0.296	0.193	0.937	0.666	0.345
HCC-366	0.137	0.1	0.0924	0.394	0.223	0.113	1.03	0.341	0.12	0.394	0.156	0.0479	0.352	0.182	0.103	0.938	0.853	0.366
HCC-827	0.864	0.974	0.533	0.864	0.682	0.438	0.979	0.97	0.651	0.911	0.922	0.387	1.06	0.943	0.389	1.04	1.04	0.666
HOP-62	0.745	0.538	0.595	0.563	0.511	0.323	1.1	1.19	0.81	1.11	0.779	0.559	0.911	0.926	0.666	1.03	1.06	0.753
LC-2-ad	0.517	0.582	0.238	0.67	0.575	0.303	0.531	0.309	0.105	0.848	0.587	0.314	0.858	0.856	0.425	0.942	0.831	0.556
LCLC-97TM1	0.181	0.15	0.166	0.728	0.378	0.179	0.503	0.149	0.164	0.172	0.135	0.134	0.238	0.227	0.145	1.03	0.586	0.203
LCLC-103H	0.615	0.665	0.531	0.848	0.554	0.43	–	–	–	1.17	1.08	0.428	0.96	0.889	0.643	1.04	0.745	0.617
